This note sets out measurements from patent US20240115745A1, “COMPOUNDS COMPRISING A FIBROBLAST ACTIVATION PROTEIN LIGAND AND USE THEREOF” (3B PHARMACEUTICALS GMBH, priority 2021, published 2024).

Experiment [1] concerns the target T1, FAP-expressing human WI-38 fibroblasts (Homo sapiens, UniProt Q12884).
T1 construct: FAP-expressing human WI-38 fibroblasts (ECACC) were cultured in EMEM; host or cells: WI-38 human fibroblasts
Put plainly: Competitive FACS binding assay.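 Further: flow cytometry read-out of median Cy5 fluorescence on the cells, plotted versus test compound concentration, with IC50 derived by four-parameter logistic curve fitting.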

In experiment [2] the target is T2, Recombinant human FAP (Homo sapiens, UniProt Q12884).
T2 construct: purchased R&D systems 3715-SE
Put plainly: FRET-based FAP protease activity assay. It counts as biochemical.

Setting [3] is: competition with 3 nM Cy5-labeled compound, WI-38 fibroblasts, 4° C., 1 hour, read-out: pIC50 Category (FACS) (converted).
Where [4] appears, read: recombinant human FAP, FRET-peptide substrate, 37° C., read-out: pIC50 Category (Activity) (converted).

Read-outs that look alike come from different tables or passages of the source. Where a SMILES comes first, the peptide text is derived from it. Bridges are numbered along the chain shown (N, C = ends). [ ]: non-standard residue; d: D form. The star is where a group is joined. DOTA = O=C(O)CN1CCN(CC(=O)O)CCN(CC(=O)*)CCN(CC(=O)O)CC1; β3hK = NCCCC[C@H](N)CC(=O)O; Hexanoyl = CCCCCC(=O)*

T2 sequence (Q12884 26-760 limits assumed): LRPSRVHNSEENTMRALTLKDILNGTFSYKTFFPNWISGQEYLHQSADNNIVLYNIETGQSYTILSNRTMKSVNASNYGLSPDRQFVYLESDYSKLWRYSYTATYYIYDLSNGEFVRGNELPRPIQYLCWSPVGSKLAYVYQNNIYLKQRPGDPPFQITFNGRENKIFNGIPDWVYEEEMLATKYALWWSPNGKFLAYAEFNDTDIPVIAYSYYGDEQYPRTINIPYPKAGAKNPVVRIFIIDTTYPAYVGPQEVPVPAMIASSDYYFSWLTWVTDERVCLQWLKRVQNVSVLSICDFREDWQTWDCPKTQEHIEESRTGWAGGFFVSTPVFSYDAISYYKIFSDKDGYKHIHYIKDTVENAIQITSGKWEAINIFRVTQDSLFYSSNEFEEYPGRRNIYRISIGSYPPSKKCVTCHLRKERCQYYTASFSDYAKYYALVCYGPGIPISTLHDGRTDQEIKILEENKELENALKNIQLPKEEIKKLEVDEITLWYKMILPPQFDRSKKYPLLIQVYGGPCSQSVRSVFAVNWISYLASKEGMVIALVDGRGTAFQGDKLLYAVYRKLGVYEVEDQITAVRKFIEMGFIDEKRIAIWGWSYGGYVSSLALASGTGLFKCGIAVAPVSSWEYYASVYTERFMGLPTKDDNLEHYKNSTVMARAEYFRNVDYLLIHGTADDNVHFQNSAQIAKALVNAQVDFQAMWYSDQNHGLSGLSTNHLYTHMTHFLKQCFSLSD
T1 sequence (Q12884 whole entry): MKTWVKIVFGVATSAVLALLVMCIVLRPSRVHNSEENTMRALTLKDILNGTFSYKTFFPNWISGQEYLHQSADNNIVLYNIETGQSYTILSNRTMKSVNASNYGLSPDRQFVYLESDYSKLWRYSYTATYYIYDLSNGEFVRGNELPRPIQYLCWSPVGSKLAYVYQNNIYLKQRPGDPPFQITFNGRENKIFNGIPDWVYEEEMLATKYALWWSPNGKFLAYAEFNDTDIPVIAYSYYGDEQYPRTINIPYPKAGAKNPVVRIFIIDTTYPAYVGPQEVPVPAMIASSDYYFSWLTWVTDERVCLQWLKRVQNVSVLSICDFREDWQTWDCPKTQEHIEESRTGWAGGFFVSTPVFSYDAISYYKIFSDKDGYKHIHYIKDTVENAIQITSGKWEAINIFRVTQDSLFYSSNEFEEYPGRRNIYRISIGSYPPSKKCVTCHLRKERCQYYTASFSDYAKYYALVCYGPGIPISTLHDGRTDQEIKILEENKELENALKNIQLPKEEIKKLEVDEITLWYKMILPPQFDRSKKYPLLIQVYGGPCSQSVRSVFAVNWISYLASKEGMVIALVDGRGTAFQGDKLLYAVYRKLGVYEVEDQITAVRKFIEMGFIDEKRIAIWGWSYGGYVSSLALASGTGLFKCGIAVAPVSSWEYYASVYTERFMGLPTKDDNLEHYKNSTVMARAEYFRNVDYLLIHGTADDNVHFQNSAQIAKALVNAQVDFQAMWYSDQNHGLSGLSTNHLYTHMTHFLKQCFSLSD

In the case of `CCCCCC(=O)N[C@H]1CSSC[C@@H](C(=O)N[C@@H](CCCCNC(=O)CN2CCN(CC(=O)O)CCN(CC(=O)O)CCN(CC(=O)O)CC2)CC(=O)O)NC(=O)[C@H](Cc2ccccc2)NC(=O)[C@H](CCC(=O)O)NC(=O)[C@H]([C@@H](C)O)NC(=O)[C@@H]2CCCN2C(=O)[C@@H]2CCCN2C1=O` [Compound 1012, Hex-[Cys-Pro-Pro-Thr-Glu-Phe-Cys]-Bhk(DOTA)-OH] (Hexanoyl-CPPTEFC[β3hK](DOTA)-OH; disulfide 1-7), the IC50 in experiment [1] (setting [3]) and in experiment [2] (setting [4]) was less than 100 nM throughout.

As for `CCCCCC(=O)N[C@H]1CSC2=C(SC[C@@H](C(=O)N[C@@H](CCCCNC(=O)CN3CCN(CC(=O)O)CCN(CC(=O)O)CCN(CC(=O)O)CC3)CC(=O)O)NC(=O)[C@H](Cc3ccccc3)NC(=O)[C@H](CCC(N)=O)NC(=O)[C@H]([C@@H](C)O)NC(=O)[C@@H]3CCCN3C(=O)[C@@H]3CCCN3C1=O)C(=O)NC2=O` [Compound 2010, Hex-[Cys(mli)-Pro-Pro-Thr-Gln-Phe-Cys]-Bhk(DOTA)-OH], the IC50 in experiment [1] (setting [3]) and in experiment [2] (setting [4]) was less than 100 nM throughout.

As for `CCCC[C@H](NC(=O)CCC(=O)NCCCOCCOCCOCCCNC(=O)CN1CCN(CC(=O)O)CCN(CC(=O)O)CCN(CC(=O)O)CC1)C(=O)N[C@H]1CSC2=C(SC[C@@H](C(=O)N[C@@H](CC(=O)O)C(N)=O)NC(=O)[C@H](Cc3ccccc3)CC(=O)[C@H](CCC(N)=O)NC(=O)[C@H]([C@@H](C)O)NC(=O)[C@@H]3CCCN3C(=O)[C@@H]3CCCN3C1=O)C(=O)NC2=O` [Compound 2005, DOTA-Ttds-Nle-[Cys(mli)-Pro-Pro-Thr-Gln-Phe-Cys]-Asp-NH2], the IC50 in experiment [1] (setting [3]) was less than 100 nM; in experiment [1] (read-out: pIC50 (highest activity categories, FACS binding) (converted)) it was less than 100 nM; in experiment [2] (read-out: pIC50 (highest activity categories, FAP activity) (converted)), less than 100 nM; in experiment [2] (setting [4]) it was less than 100 nM.

For `CCCCCC(=O)N[C@H]1CSC2=C(SC[C@@H](C(=O)N[C@@H](CC(=O)O)C(N)=O)NC(=O)[C@H](Cc3ccccc3)NC(=O)[C@H](CCC(=O)O)NC(=O)[C@H]([C@@H](C)O)NC(=O)[C@@H]3CCCN3C(=O)[C@@H]3CCCN3C1=O)C(=O)N(CCCOCCOCCOCCCNC(=O)CN1CCN(CC(=O)O)CCN(CC(=O)O)CCN(CC(=O)O)CC1)C2=O` [Compound 2020, Hex-[Cys(mli(DOTA-Ttd))-Pro-Pro-Thr-Glu-Phe-Cys]-Asp-NH2] (HELM PEPTIDE1{[CCCCCC(=O)[*:2]].C.P.P.T.E.F.C.D.[am]}|CHEM1{[O=C(O)CN1CCN(CC(=O)O)CCN(CC(=O)NCCCOCCOCCOCCCN2C(=O)C([*:1])=C([*:2])C2=O)CCN(CC(=O)O)CC1]}$PEPTIDE1,CHEM1,2:R3-1:R1|PEPTIDE1,CHEM1,8:R3-1:R2$$$V2.0), the IC50 in experiment [1] (setting [3]) and in experiment [2] (setting [4]) was less than 100 nM each time.
